Measurements: patent publication US20090042783A1, “APO E ANALOGS AND METHODS FOR THEIR USE” (priority 2004, published 2009)
Non-standard residues stand in square brackets, D forms with d. Residues, ends and D or L forms follow the SMILES beside them. No end group written: not given here. Aib = CC(C)(N)C(=O)O

Columns and labels:
BV2 microglial cells = details: for IC50: read-out: IC50, inhibition of nitric oxide release, BV2 cells, LPS for 40 hours, approximate
mice = experiment: Maximum tolerated dose, tail vein injection; details: mouse, in vivo
Method: (§1) Candidate compounds are then be screened in our closed head injury model of traumatic brain injury by intravenous dosing at 30 minutes post injury. Novel compounds are initially tested at one half their maximum tolerated dose (0.5×MTD). The maximum tolerated dose (MTD) is the dose of peptide given in a tail vein injection that results in no death of mice. Death is defined as a complete lack of breathing and complete unresponsiveness to external stimuli such as tail pinch and/or toe pinch for a period of 10 or more minutes. Animals are given an initial dose of 1 mg/kg of peptide analog or non-peptide mimetic and observed continuously for 15 minutes and then at 15 minute intervals for 2 hours and then at 1 hour intervals for 4 hours more. Animals are also observed at 24 hours post injection.
(§2) The maximum tolerated dose is the maximum dose at which no animals die at any of these observation times. As an example of this procedure, the MTD is determined empirically by initially dosing groups of 3 mice at 1 mg/kg. If this dose is tolerated, then another group of 3 mice is dosed at 3 mg/kg. If this dose is tolerated, then another group of 3 mice is dosed at 9 mg/kg, etc. If, for example, 9 mg/kg is not tolerated because 1 or more animal died, then doses in-between 3 mg/kg and 9 mg/kg are investigated until the MTD is found. Once the MTD is empirically determined, it is confirmed in another group of 7 mice for a total of 10 mice being tested at the MTD and all of which must not die to confirm that this is the MTD.

[1] = test system: C57BL/6J mice with MOG-induced EAE; experiment: MOG-induced experimental autoimmune encephalomyelitis (EAE); details: preliminary data
Method: EAE was induced in mice following the method of Feinstein et al. (Feinstein, Galea, et al. 2002) 1) two s.c. injections, one on each flank of the hind legs with 300 μg MOG35-55 peptide in 0.1 ml PBS emulsified in an equal volume of CFA containing 5 mg/ml of Mycobacterium tuberculosis H37RA (Difco, St. Louis, Mo.) were given on Day 0.2) Pertussis toxin (200 ng per mouse in 0.1 ml PBS) was given i.p. immediately and 48 h after first MOG injection. 3) a booster immunization with an identical emulsion, route of administration and location was given on Day 7.
Following the encephalitogenic challenge, mice were monitored daily and neurological impairment was evaluated by clinical score (C.S.) as follows: 0, no clinical signs of EAE; 1, limp tail; 2, flaccid tail and abnormal gait (ataxia and/or paresis of hind limbs); 3, severe hind limb paresis; 4, complete paralysis with hind body; and 5, moribund or death.
Mice were anesthetized, bled, and perfused with 25 ml PBS and 25 ml 4% paraformaldehyde in buffered PBS. Brains and spinal cords were dissected out from 3 mice with a clinical score of 0 and another 3 mice with a clinical score of 4 on day 30 post-immunization. Tissues were post-fixed in 4% paraformaldehyde for another 24 h and then stored in 1×PBS with 0.1% sodium azide. Fixed tissues were embedded in paraffin and 5 μm thick sections were cut from brain, the brain stem and three different levels of spinal cord (cervical, thoracic and lumbar). Sections were stained with hematoxylin/eosin for evidence of inflammation and Luxol fast blue (for demyelination). The severity of inflammation was evaluated using the following criteria: 0, no inflammation; 1, cellular infiltrates only in the perivascular areas and meninges; 2, mild cellular infiltrates only in parenchyma (1-10/section); 3, moderate cellular infiltrates in parenchyma (11-100/section); 4, marked cellular infiltrates in parenchyma (>100 section).
In total, 10 doses of peptides were given.

[2] = test system: BV2 murine microglial cells; details: read-out: IC50 NO; 50% suppression of NO production, normalized on cell viability
Method: For Applicants preliminary work, the two most common PTDs, TAT and penetratin, were used.
Cell Culture: BV-2, a well-characterized murine microglial cell line (Bochinni, 1992), is cultured in high glucose content DMEM supplemented with 1% penicillin/streptomycin, 10% fetal calf serum, 1% nonessential amino acids, and 1% sodium pyruvate. Cells are grown to confluency; trypsinized; spun down; resuspended in serum-free OptiMEM containing 1% N2 supplement, 1% penicillin/streptomycin, 1% nonessential amino acids, and 1% sodium pyruvate; and plated at a concentration of 20,000 cells/well to remove any nonadherent cells and serum.
Supernatant is collected 24 and/or 48 h after LPS stimulation and assayed for nitrite.
Quantification of Nitric Oxide (NO): Accumulation of nitrite (stable end product of NO production) in the medium is measured by colometric Griess reagent system (Promega); the absorbance is determined at 540 nm.
Cell Viability Assay: Cell viability is measured using a nonradioactive cell viability assay (cell titer 96 AQ, Promega). The assay measures the bioreduction of MTS (3-(4,5-dimethylthiazole-2-)-5-(3-carboxymethoxyphenyl)-2-(4-sulfophenyl)-2H-tetrazolium by viable cells into formazan. The absorbance of the calorimetric assay is measured at λ 490 nm. Viability is assessed and used to normalize the nitrite data.

in vivo = details: male, C57B1/6, mouse, 0.4 mg/kg
[3] = Maximum tolerated dose, tail vein injection; details: mouse, in vivo, intravenous, highest dose with death of no mice in 24 hours, tail vein
Method: as §1, §2

RAW 264.7 macrophages [4] = experiment: NO production and iNOS mRNA in C. rodentium-stimulated macrophages; type: cell-based, mouse; details: C. rodentium lysates; COG1410 2 μM, COG4502 0.1-5 μM
Source text: RAW 264.7 cells were stimulated with French-pressed lysates of C. rodentium at a multiplicity of infection of 100. […] B, RT-PCR for iNOS.
We used bacterial lysates to more closely mimic the bacterial products to which lamina propria macrophages are likely to be exposed.

[5] = mouse, in vivo
Source text: We have employed a similar LC/MS procedure to identify fragments of COG1410 that may arise by degradation processes.

RAW 264.7 macrophages [6] = test system: RAW 264.7 macrophages
[7] = test system: mice with traumatic brain injury; experiment: Closed head injury model of traumatic brain injury (rotorod, Morris Water Maze)
Method: C57Bl/6J male mice (The Jackson Laboratory, ME), 12-16 weeks of age and weighing 24-32 g, are used for all experiments. Anesthesia is first induced with isoflurane in 30% O2/balance N2. The trachea is intubated and the lungs mechanically ventilated with 1.6% isoflurane in 30% O2/balance N2. Temperature is monitored with a rectal probe and maintained at 36.5° C. with a heat lamp. The right internal jugular vein is cannulated with silicone catheter. […] Intubated animals are then placed prone on a molded acrylic cast (FIG. 6A). […] The scalp is incised and the skull exposed. A concave 3 mm metallic disc is secured to the skull surface (with the concave surface in juxtaposition to the skull) by an adhesive. […] The disc is placed directly midline just caudal to bregma (FIG. 6B). […] The mice are positioned in a stereotactic frame. Although the stereotactactic frame helps to stabilize the animal and exactly calibrate the vertical displacement on impact (3 mm), ear bars are not used due to a much higher rate of skull fracture (or brainstem injury if the head rotates around the axis of the ear bars during impact). The piston is discharged at 6.8±0.2 m/s so as to impact the skull in the acrylic mold to move a maximum of approximately 3 mm (FIG. 6C). Inspired isoflurane is decreased to 0.7% immediately after impact. The scalp was infiltrated with lidocaine and closed with suture. Ophthalmic ointment was applied to the eyes for protection. The incidence of skull fracture is low (approximately 10%), as the metal disk helps to diffuse the impact, and the absence of ear bar fixation allows for displacement of the entire head. Mice were excluded if a depressed skull fracture was observed (incidence of approximately 10%). The animals are allowed to recover spontaneous ventilation then extubated. […] In these mice, arterial blood pressure, blood gas and glucose measurement at baseline, immediately after injury, and 15 minutes after injury are monitored during the recovery period.
Briefly, baseline performance on rotorod is established before the mice are intubated, the skin over the scalp reflected and a controlled cortical impact from a pneumatic impactor given on the midline. The skin is closed with surgical clips and the animals are constantly monitored until awake from anesthesia and then hourly for the next 4 hours. […] Performance on rotorod is tested at 24 hours post impaction and then every day for 5 days and data is presented as described. Groups of 12 mice are used for each compound at 0.5×MTD. […] Novel peptides and non-peptide analogs are also given by tail vein injection.
Daily Rotarod (RR) testing was used to assess short term motor and cerebellar deficit following head injury (Hamm et al., 1994). Mice were held by their tails and placed on the RR facing the wall by using gentle swinging motion while running in a constant speed mode.

[8] = test system: mice receiving total body irradiation; details: cited from earlier work
[9] = target: cellular receptor bound by the apoE 133-149 peptide (on cells, 250,000 cells per well); experiment: competition with biotinylated apoE 133-149 for binding to whole cells (250,000 cells/well, 4 C), 125I-streptavidin detection

CC(=O)N[C@@H](CC(C)C)C(=O)N[C@@H](CCCNC(=N)N)C(=O)N[C@H](C(=O)N[C@@H](CCCNC(=N)N)C(=O)N[C@@H](CC(C)C)C(=O)N[C@@H](C)C(=O)N[C@@H](CO)C(=O)N[C@@H](Cc1c[nH]cn1)C(=O)N[C@@H](CC(C)C)C(=O)N[C@@H](CCCNC(=N)N)C(=O)N[C@@H](CCCCN)C(=O)N[C@@H](CC(C)C)C(=O)N[C@@H](CCCNC(=N)N)C(=O)N[C@@H](CCCCN)C(=O)N[C@@H](CCCNC(=N)N)C(=O)N[C@@H](CC(C)C)C(=O)N[C@@H](CC(C)C)C(N)=O)C(C)C [COG133]
EC50 (BV2 microglial cells; read-out: EC50 (50% reduction of NO or TNFα release), LPS induced BV2 cells): 3.5 µM
IC50 (BV2 microglial cells): ~2 µM
Therapeutic Index (ratio of the MTD to the MED) (mice): 3.5
Tolerability in mice with EAE [1]: well tolerated
IC50 [2]: 25 µM
half-life (in vivo): 8 min

CC(=O)N[C@@H](C)C(=O)N[C@@H](CO)C(=O)NC(C)(C)C(=O)N[C@@H](CC(C)C)C(=O)N[C@@H](CCCNC(=N)N)C(=O)N[C@@H](CCCCN)C(=O)N[C@@H](CC(C)C)C(=O)NC(C)(C)C(=O)N[C@@H](CCCCN)C(=O)N[C@@H](CCCNC(=N)N)C(=O)N[C@@H](CC(C)C)C(=O)N[C@@H](CC(C)C)C(N)=O [COG1410, Ac-AS-Aib-LRKL-Aib-KRLL-NH2] (Ac-AS[Aib]LRKL[Aib]KRLL-NH2)
Biologic Activity relative to COG133 (BV2 microglial cells; Table 2, preliminary data): >5x x COG133
IC50 (BV2 microglial cells): ~2 µM
MTD at 24 h [3]: 8 mg/kg
Therapeutic Index (ratio of the MTD to the MED) (mice): 26
NO production (nitrite levels) in macrophage supernatants (RAW 264.7 macrophages [4]): inhibition of NO production
Major metabolite in plasma [5]: acetyl-AS-Aib-LRKL-Aib-KR
Concentration at which cell toxicity was noted (RAW 264.7 macrophages [6]): ≥ 5 µM
half-life (in vivo): 2 min
Neuroprotection (rotorod) when administered 120 minutes after TBI ([7]; 120 minutes after TBI, vs saline): neuroprotective
Minimum effective dose (MED) ([7]; lowest dose with statistically significant improvement vs vehicle, preliminary): 0.3 mg/kg
Gain in therapeutic window as compared to COG133 ([7]; mouse, in vivo): 4 fold

NCCCNCCSP(=O)(O)O [amifostene, reference compound]
Dose reduction factor ([8]; 30 days post-irradiation, given immediately before irradiation (Hall 2000)): 2.7

B1: apoE 133-149 peptide (COG133), unlabeled (peptide)
peptide: LRVRLASHLRKLRKRLL
modifications: not fully specified
IC50 [9]: 4 µM

B2: rIL11: rIL11 given to irradiated mice (Van der Meeren et al. 2002) (protein, UniProt P20809 22-199, looked up)
Interleukin-11: PGPPPGPPRVSPDPRAELDSTVLLTRSLLADTRQLAAQLRDKFPADGDHNLDSLPTLAMSAGALGALQLPGVLTRLRADLLSYLRHVQWLRRAGGSSLKTLEPELGTLQARLDRLLRRLQLLMSRLALPQPPPDPPAPPLAPPSSAWGGIRAAHAILGGLHLTLDWAVRGLLLLKTRL
Survival rate at 30 days post-TBI ([8]; 8 Gy, 2 hour delay, every day for 5 days (Van der Meeren et al. 2002)): 74%
